Experiments:
Assay type in all cases: cell-based
[1] = test system: BT474 cells; assay: Cell death in BT474 cells (FIG. 5, FIG. 15); details: for induction of cell death: BT474, 24 hr, BN108 0.5 mg/mL, Timosaponin A3 4 μg/mL, Timosaponin B2 50 μg/mL, lamarinase-treated Timosaponin B2 4 μg/mL
Experimental: FIG. 5. Effect of Timosaponins A3 and B2 on viability of breast cancer (BT474) and normal epithelial cells (MCF10A). Cells were treated with BN108 at 0.5 mg/ml, Timosaponin A3 at 4 μg/ml, or Timosaponin B2 at 50 μg/ml, inactivated lamarinase alone or lamarinase-treated B2 at 4 μg/ml for 24 hours.
FIG. 15. Conversion of Timosaponin B2 to Timosaponin A3 by lamarinase was confirmed by time of flight mass spectrometry (TOF MS). Disappearance of Timosaponin B2 and appearance of Timosaponin A3 results in an increase in cell death from 16% in the presence of inactivated lamarinase and Timosaponin B2 to 53% in the presence of activated lamarinase and Timosaponin B2.
The effect of Timosaponins A3 and B2 on the viability of breast cancer cells and normal epithelial cells was tested by treating cells with either 0.5 mg/mL BN108, 4 μg/mL Timosaponin A3, 50 μg/mL Timosaponin B2, inactivated lamarinase alone or lamarinase-treated Timosaponin B2 (4 μg/mL) for 24 hr. […] The difference in activity between Timosaponin A3 and lamarinase treated Timosaponin B2 is, on a molar basis, probably negligible, given that the quotient of the molecular weights of Timosaponin B2 (920 Da) and Timosaponin A3 (740 Da) is roughly equivalent to the ratio of the % dead cells in the Timosaponin A3 and the lamarinase-treated Timosaponin B2. Thus, it can be inferred that nearly all the Timosaponin B2 is converted into Timosaponin A3, and is active to induced apoptosis, in the presence of lamarinase.

[2] = test system: BT474 cells; assay: FACScan propidium iodide / Annexin V viability and apoptosis (FIG. 9, table); details: for % Difference from control: control = DMSO; for cells surviving: BT474, 24 hours
Experimental: FIG. 9. […] BT474 cells were treated for 24 hours, and percent of live cells was analyzed on FACScan based on permeability of dead cells for propidium iodide and binding of Annexin V.
The cytotoxic effects of BN108 and Timosaponin A3 are attenuated by cholesterol (CHL) and the caspase 4 inhibitor LEVD. […] Treatment of BT474 cells with […] cholesterol protected the cells from the effects of Timosaponin A3 and BN108, with about 80% of the cells surviving 24 hours in the presence of cholesterol (CHL).

[3] = test system: cancer cells; assay: Induction of apoptosis in vitro
[4] = test system: SREBP2; assay: SREBP2 activation in BT474 cells (FIG. 4B, FIG. 7); details: Timosaponin A3 5 μM, BN108 0.5 mg/mL
Experimental: FIG. 4. […] B. SREBP2 is activated by BN108 in both cell lines. Activated AKT was detected using antibody to phosphoserine 473 (Phospho-AKT) that is phosphorylated only in active kinase.
(§1) FIG. 7. Purified Timosaponin A3 and BN108 extract have similar effects on phosphorylation of eIF2a and on activation of SREBP2 as well as expression on SREBP2 target gene IDI1. BT474 cells were treated with TspA3 (5 μM) or BN108 (0.5 mg/ml).
In FIG. 4B, it can be seen that SREBP2 is activeated by BN108 in both the cancer cells (BT474) and the non-cancerous cells (MCF10A).
Both BN108 and Timosaponin A3 induce the pro-apoptotic gene REDD1 in prostate cancer cells.

[5] = test system: REDD1; assay: REDD1 induction in Du145 cells (FIG. 6); details: Du145 prostate cancer cells; BN108 0.5 mg/mL, Timosaponin A3 7.5 μM
Experimental: FIG. 6. Pro-apoptotic gene REDD1 is induced in prostate cancer cell line Du145 by treatment with BN108 (0.5 mg/ml) and Timosaponin A3 (7.5 μM). Both BN108 and Timosaponin A3 induce the pro-apoptotic gene REDD1 in prostate cancer cells.

[6] = test system: eIF2a; assay: Phosphorylation of eIF2a in BT474 cells (FIG. 7); details: Timosaponin A3 5 μM, BN108 0.5 mg/mL
Experimental: as §1, with “mg/ml). Both BN108 and Timosaponin A3 induce the pro-apoptotic gene REDD1 in prostate cancer cells.” for “mg/ml).”

[7] = test system: IDI1; assay: Expression of SREBP2 target gene IDI1 in BT474 cells (FIG. 7); details: Timosaponin A3 5 μM, BN108 0.5 mg/mL
Experimental: as §1, with “mg/ml). Both BN108 and Timosaponin A3 induce the pro-apoptotic gene REDD1 in prostate cancer cells.” for “mg/ml).”

[8] = test system: MCF10A cells; assay: Cholesterol content of cell extracts (FIG. 8); details: normal (MCF10A) breast cells, through the first 8 hours after treatment
Experimental: (§2) FIG. 8. Purified Timosaponin A3 and BN108 extract have similar effects on cholesterol synthesis on breast cancer cells MM23 and normal MCF10A cells. Cells were treated with either BN108 or TspA3 for indicated times, and cell extracts were analyzed for cholesterol content, which was normalized to the protein content.
(§3) BN108 and Timosaponin A3 had similar effects on cholesterol (CHL) synthesis in cancerous and normal cells.

[9] = test system: MM23 breast cancer cells; assay: Cholesterol content of cell extracts (FIG. 8); details: cancerous (MM23) breast cells
Experimental: as §2, §3

[10] = test system: non-cancerous cells; assay: Induction of apoptosis in vitro

| SMILES | induction of cell death [1] | cell death ([1]; in the presence of inactivated lamarinase (FIG. 15)) [%] | % Total apoptotic [2] [%] | % early apoptotic [2] [%] | % late apoptotic [2] [%] | % Difference from control [2] [%] | induction of apoptosis [3] | expression of SREBP2 [4] | REDD1 gene induction [5] | phosphorylation of eIF2a [6] | expression of IDI1 [7] | cholesterol synthesis [8] | cholesterol synthesis [9] | cells surviving [2] [%] | cells surviving ([2]; with 250 mM cholesterol (CHL)) | induction of apoptosis [10] |
| --- | --- | --- | --- | --- | --- | --- | --- | --- | --- | --- | --- | --- | --- | --- | --- | --- |
| C[C@@H](CCC1(O)O[C@H]2C[C@H]3[C@@H]4CC[C@@H]5C[C@@H](O[C@@H]6O[C@H](CO)[C@H](O)[C@H](O)[C@H]6O[C@@H]6O[C@H](CO)[C@@H](O)[C@H](O)[C@H]6O)CC[C@]5(C)[C@H]4CC[C@]3(C)[C@H]2[C@@H]1C)CO[C@@H]1O[C@H](CO)[C@@H](O)[C@H](O)[C@H]1O (stereo partly shown) [Timosaponin B2] | did not induce cell death | 16 | 12 | 7 | 5 | 1 | does not induce apoptosis | – | – | – | – | – | – | – | – | – |
| CC1CCC2(OC1)OC1CC3C4CCC5CC(OC6OC(CO)C(O)C(O)C6OC6OC(CO)C(O)C(O)C6O)CC[C@]5(C)C4CC[C@]3(C)[C@H]1[C@@H]2C (stereo partly shown) [Timosaponin A3] | induced cell death | – | 68 | 35 | 33 | 57 | induces of apoptosis | increase expression of SREBP2 | induced | increase phosphorylation of elF2a | increase expression of IDI1 | reduce cholesterol synthesis | increase cholesterol synthesis slightly | 40 | about 80% | does not induce apoptosis |
